Key:
Rattus norvegicus = assay: In vivo inhibition of Aldose reductase in streptozotocin-induced po dosed rat model of diabetes assessed as reduction in sorbitol accumulation in sciatic nerve administered at 4,7,24 hrs and measured at 27 hrs; format: functional
MCF7 = assay: cells; conditions: Homo sapiens, MCF7, 24 h
Description: Cytotoxicity against human MCF7 cells after 24 hrs by MTT assay

HepG2 [1] = assay: cells; conditions: Homo sapiens, HepG2, 24 h
Description: Cytotoxicity against human HepG2 cells after 24 hrs by MTT assay

[2] = molecular target: T1, NAD-dependent protein deacetylase sirtuin-1 (Homo sapiens) (UniProt Q96EB6); assay: Modulation of SIRT1 (unknown origin) expressed in Escherichia coli BL21(DE3) cells using Ac-EE-K(biotin)-GQSTSSHSK(Ac)NleSTEG-K(5TMR)-EE-NH2 as substrate after 25 mins by mass spectrometry
T1 sequence (whole entry): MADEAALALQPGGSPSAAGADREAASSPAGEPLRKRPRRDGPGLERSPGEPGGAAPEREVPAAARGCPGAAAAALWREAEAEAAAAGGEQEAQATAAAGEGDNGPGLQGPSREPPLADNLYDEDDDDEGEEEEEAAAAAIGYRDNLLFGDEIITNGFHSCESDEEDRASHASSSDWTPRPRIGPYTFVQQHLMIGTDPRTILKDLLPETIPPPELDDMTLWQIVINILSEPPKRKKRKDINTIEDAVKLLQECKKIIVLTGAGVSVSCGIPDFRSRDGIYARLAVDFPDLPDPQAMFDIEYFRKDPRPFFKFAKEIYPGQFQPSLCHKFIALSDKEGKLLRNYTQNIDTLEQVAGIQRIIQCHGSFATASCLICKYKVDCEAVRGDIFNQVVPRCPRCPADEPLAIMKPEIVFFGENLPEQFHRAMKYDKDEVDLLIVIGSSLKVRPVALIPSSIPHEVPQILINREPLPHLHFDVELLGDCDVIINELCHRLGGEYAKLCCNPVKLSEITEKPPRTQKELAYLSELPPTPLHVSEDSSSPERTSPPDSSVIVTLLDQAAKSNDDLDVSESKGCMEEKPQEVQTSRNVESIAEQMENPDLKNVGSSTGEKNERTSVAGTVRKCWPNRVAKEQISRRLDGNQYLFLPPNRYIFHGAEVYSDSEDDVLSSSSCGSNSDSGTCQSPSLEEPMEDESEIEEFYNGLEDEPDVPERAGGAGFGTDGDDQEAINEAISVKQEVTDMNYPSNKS

Aurora kinase A = molecular target: T2, Aurora kinase A (Homo sapiens, UniProt O14965); assay: Inhibition of C-terminal His4-tagged Aurora A (unknown origin) using PKB-GSK2 biotinylated peptide as substrate incubated for 90 mins by ELISA
T2 sequence (O14965 whole entry): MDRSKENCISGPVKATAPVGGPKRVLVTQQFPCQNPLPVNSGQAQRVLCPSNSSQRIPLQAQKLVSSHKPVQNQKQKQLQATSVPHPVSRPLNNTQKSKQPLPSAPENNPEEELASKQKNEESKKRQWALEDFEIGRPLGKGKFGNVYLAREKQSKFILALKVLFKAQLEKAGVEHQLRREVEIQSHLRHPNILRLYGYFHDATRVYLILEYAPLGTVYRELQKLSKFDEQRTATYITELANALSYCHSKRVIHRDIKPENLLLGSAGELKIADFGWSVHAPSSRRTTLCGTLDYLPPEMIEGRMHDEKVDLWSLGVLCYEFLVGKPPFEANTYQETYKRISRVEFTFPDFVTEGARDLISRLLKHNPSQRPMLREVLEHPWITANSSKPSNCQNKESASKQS

HCT-116 = assay: Antiproliferative activity against human HCT116 cells after 5 days by CellTiter-Glo Luminescent Cell Viability Assay; format: functional, cell-based; conditions: HCT-116, 120 h
[3] = Inhibition of human HeLa cell derived PARP preincubated for 10 mins followed by NAD and double stranded DNA-oligos addition and measured after 45 mins by scintillation counting; format: cell-based
[4] = molecular target: T3, Aldo-keto reductase family 1 member B1 (Homo sapiens, UniProt P15121); assay: Inhibition of human Aldose reductase
Mus musculus [5] = species: Mus musculus; assay: animal or person; conditions: ICR, ip
Prostaglandin E synthase = molecular target: T4, Prostaglandin E synthase (Homo sapiens, UniProt O14684); assay: Inhibition of mPGES-1 in human A549 cells assessed as reduction in […] induced PGE2 release preincubated for 30 mins followed by […] addition and measured after 16 to 20 hrs by HTRF assay; format: cell-based
T4 sequence (O14684 whole entry): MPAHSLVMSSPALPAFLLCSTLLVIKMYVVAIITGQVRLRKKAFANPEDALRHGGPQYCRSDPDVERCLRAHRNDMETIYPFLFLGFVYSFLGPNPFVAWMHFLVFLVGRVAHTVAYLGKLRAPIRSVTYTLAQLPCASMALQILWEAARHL

Mus musculus [6] = assay: Potency index, ratio of valproate ED50 to compound ED50 for Anticonvulsant activity in ip dosed ICR mouse assessed as protection against 50 mA current-induced seizure pretreated for 30 mins followed by seizure induction measured for 60 mins by maximal electroshock seizure test; format: functional
[7] = molecular target: T5, Poly [ADP-ribose] polymerase 1 (Homo sapiens, UniProt P09874); assay: Inhibition of N-terminal GST-tagged human PARP1 expressed in a Baculovirus infected Sf9 insect cells using biotinylated substrate incubated for 1 hr by colorimetric method
T5 sequence (P09874 whole entry): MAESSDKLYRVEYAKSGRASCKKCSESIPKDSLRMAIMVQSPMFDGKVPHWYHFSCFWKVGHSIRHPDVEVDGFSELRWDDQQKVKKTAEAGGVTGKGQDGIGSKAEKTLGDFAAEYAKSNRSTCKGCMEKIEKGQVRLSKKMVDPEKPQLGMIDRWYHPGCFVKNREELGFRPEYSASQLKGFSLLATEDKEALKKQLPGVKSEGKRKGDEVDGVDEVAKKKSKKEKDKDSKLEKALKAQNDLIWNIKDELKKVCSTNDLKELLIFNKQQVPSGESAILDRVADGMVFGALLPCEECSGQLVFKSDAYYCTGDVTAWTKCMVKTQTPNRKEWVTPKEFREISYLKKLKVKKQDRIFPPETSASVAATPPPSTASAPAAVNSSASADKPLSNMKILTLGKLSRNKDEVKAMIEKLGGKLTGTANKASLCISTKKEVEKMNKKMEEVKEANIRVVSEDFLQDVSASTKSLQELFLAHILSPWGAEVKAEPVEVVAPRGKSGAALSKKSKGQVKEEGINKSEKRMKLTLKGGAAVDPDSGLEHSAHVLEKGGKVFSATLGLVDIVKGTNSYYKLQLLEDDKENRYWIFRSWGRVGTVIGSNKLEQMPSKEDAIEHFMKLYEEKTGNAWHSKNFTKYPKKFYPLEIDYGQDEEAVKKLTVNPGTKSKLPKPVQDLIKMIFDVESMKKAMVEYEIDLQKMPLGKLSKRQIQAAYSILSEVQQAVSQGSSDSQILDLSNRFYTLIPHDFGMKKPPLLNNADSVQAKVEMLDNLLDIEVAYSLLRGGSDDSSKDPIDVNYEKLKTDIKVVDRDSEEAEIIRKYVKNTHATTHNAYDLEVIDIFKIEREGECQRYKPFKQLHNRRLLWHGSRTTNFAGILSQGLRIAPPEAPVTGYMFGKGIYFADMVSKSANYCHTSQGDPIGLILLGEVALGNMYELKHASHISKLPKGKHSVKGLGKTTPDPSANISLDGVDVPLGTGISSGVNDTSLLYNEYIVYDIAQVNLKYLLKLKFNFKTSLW

HepG2 [8] = assay: Potency index, ratio of doxorubicin IC50 to compound IC50 for cytotoxicity against human HepG2 cells by sulforhodamine B assay; format: functional
HepG2 [9] = assay: Potency index, ratio of sorafenib IC50 to compound IC50 for cytotoxicity against human HepG2 cells by sulforhodamine B assay; format: functional
Mus musculus [10] = assay: Anticonvulsant activity in ip dosed mouse assessed as protection against PTZ-induced seizure; format: functional
PC-3 = assay: Cytotoxicity against human PC3 cells after 24 hrs by MTT assay; format: functional, cell-based; conditions: PC-3, 24 h
[11] = molecular target: T5, Poly [ADP-ribose] polymerase 1; assay: Inhibition of human PARP1 expressed in Escherichia coli incubated for 10 mins by colorimetric assay
[12] = Inhibition of recombinant human PARP expressed in Escherichia coli in presence of NAD+ by microplate scintillation counting method
[13] = Inhibition of PARP in human C41 cells assessed as reduction in protein accumulation preincubated for 30 mins followed by H2O2 addition and measured after 10 mins by FITC/DAPI-staining based fluorescence method; format: cell-based
[14] = molecular target: T5, Poly [ADP-ribose] polymerase 1; assay: Inhibition of human PARP1 expressed in Escherichia coli incubated for 15 to 40 mins by ELISA
HepG2 [15] = assay: Cytotoxicity against human HepG2 cells incubated for 48 hrs by sulforhodamine B staining based ELISA; format: functional, cell-based; conditions: HepG2, 48 h
[16] = molecular target: T3, Aldo-keto reductase family 1 member B1
Description: Inhibition of human placenta Aldose reductase

## O=C(O)Cc1nn(Cc2nc3cc(Br)ccc3s2)c(=O)c2ccccc12
Rattus norvegicus
  ED50: 3.6 mg/kg

## O=c1c2ccccc2c(Cc2ccccc2)nn1CC(=S)NNS(=O)(=O)c1ccccc1
MCF7
  IC50: 19800 nM
HepG2 [1]
  IC50: 22200 nM

## O=C(Nc1cccc2cnn(-c3cccc(OC(F)(F)F)c3)c(=O)c12)c1cccc(OCC(O)CO)n1 (configuration not stated)
[2]
  EC1.5: < 5 µM

## Cc1cc(Nc2nn(C(C)C)c(=O)c3cc(OCCN4CCOCC4)ccc23)n[nH]1
Aurora kinase A
  IC50: 420 nM
HCT-116
  IC50: 7 nM

## O=C(Nc1ccc(-c2cccc(Cc3n[nH]c(=O)c4ccccc34)c2)cc1)C1CC1
[3]
  IC50: 57 nM

## CCOC1CCN(C(=O)c2cc(Cc3n[nH]c(=O)c4ccccc34)ccc2F)CC1
[3]
  IC50: 3 nM

## O=C(O)Cc1nn(Cc2nc3cc(C(F)(F)F)ccc3s2)c(=O)c2cc3ccccc3cc12
[4]
  IC50: 46 nM

## CCOC(=O)CSc1nnc(Cn2[nH]c(=O)c3ccccc3c2=O)o1
Mus musculus [5]
  ED50: 193 µmol/kg

## O=C(O)CSc1nnc(Cn2[nH]c(=O)c3ccccc3c2=O)o1
Mus musculus [5]
  ED50: 184 µmol/kg

## O=C(O)Cc1nn(Cc2cc(F)cc(Br)c2)c(=O)c2ccccc12
[4]
  IC50: 20 nM

## O=C(Nc1ccc2cnn(-c3ccc(Br)cc3)c(=O)c2c1)c1c(F)cccc1Cl
Prostaglandin E synthase
  IC50: < 50 nM

## COC(=O)CSc1nnc(Cn2[nH]c(=O)c3ccccc3c2=O)o1
Mus musculus [6]
  Ratio ED50: 10
Mus musculus [5]
  ED50: 172 µmol/kg

## O=C(CCCn1nc(-c2ccccc2)c2ccccc2c1=O)Nc1cccc(Cl)c1
[7]
  IC50: 97 nM

## O=C(Cn1nc(Cc2ccccc2)c2ccccc2c1=O)Nc1ccccc1Cl
HepG2 [8]
  Ratio IC50: 2.9
HepG2 [9]
  Ratio IC50: 2.9

## O=C1CCC(=O)N1c1cccc(Cc2n[nH]c(=O)c3ccccc23)c1
Mus musculus [10]
  ED50: 0.0016 µmol/kg
[3]
  IC50: < 3 nM

## O=C(Cn1nc(Cc2ccccc2)c2ccccc2c1=O)NNS(=O)(=O)c1ccccc1
HepG2 [1]
  IC50: 17400 nM
PC-3
  IC50: 19800 nM

## O=C(c1cc(Cc2n[nH]c(=O)c3ccccc23)ccc1F)N1CCn2c(nnc2C2CC2)C1
[11]
  IC50: 8.41 nM

## O=C(c1cc(Cc2n[nH]c(=O)c3ccccc23)ccc1F)N1CCN(c2ncccn2)CC1
[12]
  IC50: 0.7 nM
[13]
  EC50: 0.7 nM

## O=C(c1cc(Cc2n[nH]c(=O)c3ccccc23)ccc1F)N1CCn2cnnc2C1
[14]
  IC50: 5000 nM

## O=c1[nH]cc(F)c(=O)[nH]1 [FLUOROURACIL]
PC-3
  IC50: 63800 nM

## Cc1c(CC(=O)O)nn(Cc2nc3cc(F)cc(F)c3s2)c(=O)c1C
[4]
  IC50: 3.2 to 5 nM

## CC(=O)CNC(=O)Cn1nc(Cc2ccccc2)c2ccccc2c1=O
HepG2 [15]
  IC50: 10 nM

## O=C(c1cc(Cc2n[nH]c(=O)c3ccccc23)ccc1F)N1CC2C(=O)N(Cc3ccccc3)C(=O)C2C1 (configuration not stated)
[14]
  IC50: 0.5 nM

## O=C(O)Cc1nn(Cc2nc3cc(F)cc(F)c3o2)c(=O)c2ccccc12
[16]
  IC50: 3.2 to 52 nM
Rattus norvegicus
  ED50: 5.6 mg/kg

Source: ChEMBL document CHEMBL4354803, “Synthesis and biological activity of structurally diverse phthalazine derivatives: A systematic review” (Bioorg Med Chem, 2019)
